This is an account of results in patent US12590122B2, “NRP-1 binding inhibitory peptides and uses thereof” (priority 2019, dated 2026).

Like-named read-outs stand apart in the source and are kept apart here. Where a SMILES comes first, the peptide text is derived from it.

Assay [1] addresses T1, NRP-1 (Homo sapiens, UniProt O14786). As to the kind of experiment: NRP-1 binding assay: inhibition of (bt)-VEGF-A165 binding to immobilized NRP-1, chemiluminescent detection. On the procedure:
More precisely, the inventors have shown that the compounds of formula (I) disclosed herein bind to NRP-1 at the nanomolar level whereas the most efficient known inhibitors to date bind to NRP-1 at the micromolar level.
The flat bottom surface of a 96-well plate was coated with 100 μL (200 ng/well) recombinant human NRP-1 and incubated overnight at 4° C. Non-specific binding was blocked by the incubation with 0.5% BSA in PBS. 50 μL of peptide dissolved in PBS in range concentrations and 50 μL (400 ng/mL) of human (bt)-VEGF-A165 in PBS containing 4 μg/mL of heparin were added respectively. After 2 h incubation at room temperature the plate was washed and treated with streptavidin-horseradish peroxidase conjugate in PBS (1:8000). Chemiluminescence was quantified immediately after addition of 100 μL Chemiluminescent substrate. In a positive control only (bt)-VEGF-A165 was present in wells, while, in negative control, wells were not coated by NRP-1. Percentages of inhibition were calculated by the following formula: 100%−[[(S−[…])/(P−NS)]·100%] where S is the signal intensity measured, NS is the signal measured in negative control, and P is the signal measured in positive control.
Selected active branched peptides were tested again using a more sensitive method with chemiluminescent detection. Moreover, some modified compounds were also examined. The IC50 for selected Lys(hArg)-X-X-Arg peptides was between 2-21 μM (Puszko A. K. at al. Neuropilin-1 peptide-like ligands with proline mimetics, tested using the improved chemiluminescence affinity detection method. MedChemComm, 2019, Vol. 10: 332-340).

For assay [2], the target named is T1, NRP-1. The following applies: further comparative branched peptides without cysteine; chemiluminescent detection (Puszko et al. 2019); cited from earlier work.
The target in assay [3] is T1, NRP-1. The following applies: comparative branched peptides without cysteine; colorimetric method; cited from earlier work.
Where [4] appears, read: peptides of formula (I), chemiluminescence binding assay, read-out: IC50.

T1 sequence (O14786 22-923): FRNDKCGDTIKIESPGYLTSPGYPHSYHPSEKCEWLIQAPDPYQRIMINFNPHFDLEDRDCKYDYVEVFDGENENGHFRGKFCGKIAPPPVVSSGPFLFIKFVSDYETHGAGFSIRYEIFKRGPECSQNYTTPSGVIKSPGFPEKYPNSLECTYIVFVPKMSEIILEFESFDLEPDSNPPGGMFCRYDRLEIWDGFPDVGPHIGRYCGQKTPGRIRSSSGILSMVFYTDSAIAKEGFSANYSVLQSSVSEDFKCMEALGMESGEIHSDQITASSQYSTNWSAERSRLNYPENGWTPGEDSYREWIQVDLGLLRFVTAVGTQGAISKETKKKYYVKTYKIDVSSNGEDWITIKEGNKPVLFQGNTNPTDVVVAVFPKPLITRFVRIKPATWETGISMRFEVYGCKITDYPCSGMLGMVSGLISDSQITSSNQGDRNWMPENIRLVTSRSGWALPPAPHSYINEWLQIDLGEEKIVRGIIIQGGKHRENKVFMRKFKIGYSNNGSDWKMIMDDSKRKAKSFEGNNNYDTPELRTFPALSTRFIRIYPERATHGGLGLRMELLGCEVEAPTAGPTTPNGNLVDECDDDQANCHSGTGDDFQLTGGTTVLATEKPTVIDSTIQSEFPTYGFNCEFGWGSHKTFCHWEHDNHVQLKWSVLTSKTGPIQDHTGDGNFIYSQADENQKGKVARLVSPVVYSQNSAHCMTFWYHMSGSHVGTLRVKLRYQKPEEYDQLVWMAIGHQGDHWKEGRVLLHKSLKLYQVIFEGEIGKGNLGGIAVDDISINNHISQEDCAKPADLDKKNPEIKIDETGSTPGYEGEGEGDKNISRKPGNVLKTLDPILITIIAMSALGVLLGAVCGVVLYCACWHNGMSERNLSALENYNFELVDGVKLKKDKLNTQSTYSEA

A word on the IC50: it is the concentration at which inhibition is half-maximal. Turning to `C[C@@H](O)[C@H](N)C(=O)N[C@@H](CCCCN)C(=O)N1CCC[C@H]1C(=O)N[C@@H](CCCNC(=N)N)C(=O)O` [TKPR] (H-TKPR-OH; N-terminus and C-terminus assumed), on NRP-1 [1] (parent tetrapeptide without N-terminal Cys, VEGF-A165/NRP-1 binding, read-out: IC50 [μM] without Cys), the IC50 is greater than 100 µM.
Consider H-Lys(hArg)-Oic-Oic-Arg-OH, for which the IC50 on NRP-1 [2] was 7200 nM.
Turning to `N=C(N)NCCCC[C@H](N)C(=O)NCCCC[C@H](N)C(=O)N[C@@H](CCN)C(=O)N1CCC[C@H]1C(=O)N[C@@H](CCCNC(=N)N)C(=O)O` [H-Lys(hArg)-Dab-Pro-Arg-OH] (HELM PEPTIDE1{K.[Dab].P.R}|PEPTIDE2{[N=C(N)NCCCC[C@H](N)C(=O)[*:2]]}$PEPTIDE1,PEPTIDE2,1:R3-1:R2$$$V2.0), the IC50 at NRP-1 [3] was 200 nM.
As to `N=C(N)NCCCC[C@H](NC(=O)[C@@H](N)CS)C(=O)NCCCC[C@H](N)C(=O)N[C@@H](CCN)C(=O)N1C2CCCCC2C[C@H]1C(=O)N[C@@H](CCCNC(=N)N)C(=O)O` (stereo partly drawn) [H-Lys(Cys-hArg)-Dab-Oic-Arg-OH] (HELM PEPTIDE1{K.[Dab].[O=C([C@@H]1CC2CCCCC2N1[*:1])[*:2]].R}|PEPTIDE2{C.[N=C(N)NCCCC[C@H](N[*:1])C(=O)[*:2]]}$PEPTIDE1,PEPTIDE2,1:R3-2:R2$$$V2.0), at NRP-1 [1] (setting [4]), the IC50 is 0.04 µM.
Consider `N=C(N)NCCCC[C@H](N)C(=O)NCCCC[C@H](N)C(=O)N[C@@H](CN)C(=O)N1CCC[C@H]1C(=O)N[C@@H](CCCNC(=N)N)C(=O)O` [H-Lys(hArg)-Dap-Pro-Arg-OH] (HELM PEPTIDE1{K.[NC[C@H](N[*:1])C(=O)[*:2]].P.R}|PEPTIDE2{[N=C(N)NCCCC[C@H](N)C(=O)[*:2]]}$PEPTIDE1,PEPTIDE2,1:R3-1:R2$$$V2.0), for which the concentration for half-maximal inhibition (IC50) on NRP-1 [3] is 200 nM.
Regarding H-Lys(hArg)-Dab-Oic-Arg-OH, on NRP-1 [2], the IC50 was 2300 nM.
For the compound `N=C(N)NCCCC[C@H](N)C(=O)NCCCC[C@H](N)C(=O)N1CCC[C@H]1C(=O)N[C@@H](CCN)C(=O)N[C@@H](CCCNC(=N)N)C(=O)O` [H-Lys(hArg)-Pro-Dab-Arg-OH] (HELM PEPTIDE1{K.P.[Dab].R}|PEPTIDE2{[N=C(N)NCCCC[C@H](N)C(=O)[*:2]]}$PEPTIDE1,PEPTIDE2,1:R3-1:R2$$$V2.0), the IC50 at NRP-1 [3] is 200 nM.
Consider `N=C(N)NCCCC[C@H](N)C(=O)NCCCC[C@H](N)C(=O)N1CCC[C@H]1C(=O)N1CCC[C@H]1C(=O)N[C@@H](CCCNC(=N)N)C(=O)O` [H-Lys(hArg)-Pro-Pro-Arg-OH] (HELM PEPTIDE1{K.P.P.R}|PEPTIDE2{[N=C(N)NCCCC[C@H](N)C(=O)[*:2]]}$PEPTIDE1,PEPTIDE2,1:R3-1:R2$$$V2.0), for which, at NRP-1 [3], the IC50 is 1000 nM.
As for `N=C(N)NCCCC[C@H](N)C(=O)NCCCC[C@H](NC(=O)[C@@H](N)CS)C(=O)N[C@@H](CCN)C(=O)N1CC=C[C@H]1C(=O)N[C@@H](CCCNC(=N)N)C(=O)O` [H-Cys-Lys(hArg)-Dab-ΔPro-Arg-OH] (HELM PEPTIDE1{C.K.[Dab].[O=C([C@@H]1C=CCN1[*:1])[*:2]].R}|PEPTIDE2{[N=C(N)NCCCC[C@H](N)C(=O)[*:2]]}$PEPTIDE1,PEPTIDE2,2:R3-1:R2$$$V2.0), the IC50 on NRP-1 [1] (setting [4]) stood at 0.07 µM.
`N=C(N)NCCCC[C@H](NC(=O)[C@@H](N)CS)C(=O)NCCCC[C@H](N)C(=O)N[C@@H](CCN)C(=O)N1CC=C[C@H]1C(=O)N[C@@H](CCCNC(=N)N)C(=O)O` [H-Lys(Cys-hArg)-Dab-ΔPro-Arg-OH] (HELM PEPTIDE1{K.[Dab].[O=C([C@@H]1C=CCN1[*:1])[*:2]].R}|PEPTIDE2{C.[N=C(N)NCCCC[C@H](N[*:1])C(=O)[*:2]]}$PEPTIDE1,PEPTIDE2,1:R3-2:R2$$$V2.0): the IC50 at NRP-1 [1] (setting [4]) came out at 0.06 µM.
Take `N=C(N)NCCCC[C@H](N)C(=O)NCCCC[C@H](NC(=O)[C@@H](N)CS)C(=O)N[C@@H](CCN)C(=O)N1C2CCCCC2C[C@H]1C(=O)N[C@@H](CCCNC(=N)N)C(=O)O` (stereo partly drawn) [H-Cys-Lys(hArg)-Dab-Oic-Arg-OH] (HELM PEPTIDE1{C.K.[Dab].[O=C([C@@H]1CC2CCCCC2N1[*:1])[*:2]].R}|PEPTIDE2{[N=C(N)NCCCC[C@H](N)C(=O)[*:2]]}$PEPTIDE1,PEPTIDE2,2:R3-1:R2$$$V2.0): the 50% inhibitory concentration (IC50) at NRP-1 [1] (setting [4]) was determined as 0.05 µM.
